Assay results published in patent publication US12065445B2, “CDK2 inhibitors and methods of using the same” (Cedilla Therapeutics, Inc., priority 2021, dated 2024).

Key:
Kuramochi cells = experiment: BrdU Cell Proliferation Assay; assay type: cell-based; conditions: read-out: BrdU - KURAMOCHI.1: IC50
Outline: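 Kuramochi cells were seeded at 2,000 cells/well, adhered overnight, then treated with a 10-point, 3-fold compound dilution series for 4 days. Proliferation was measured by a 1-hour BrdU pulse, anti-BrdU peroxidase colorimetric ELISA and 450 nm absorbance. Values were background-subtracted and normalized to DMSO wells.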

[1] = test system: Kuramochi cells labeled with mApple-H2B; experiment: IncuCyte Cell Proliferation Assay; assay type: cell-based; conditions: 72 h
Outline: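 Cells imaged at 0 and 72 h after compound treatment (10 points, ½ log dilution, 20 μM top), with fluorescent nuclei counted. Fold change in count was normalized to DMSO wells and fitted to dose-response curves to give GI50.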

| SMILES | IC50 (Kuramochi cells) | IC50 [1] |
| --- | --- | --- |
| CNC(=O)[C@@H](NC(=O)C1CN(C(=O)c2cnn(Cc3ccccc3)c2)CC12CN(C(=O)[C@H]1CC1(C)C)C2)[C@@H](C)OCc1ccccn1 (stereo partly drawn) [I-257] | > 10 µM | > 20 µM |
| CN1CC[C@@H](NC(=O)[C@@H]2CN(C(=O)c3cnn(Cc4ccccc4)c3)CC23CN(C(=O)[C@H]2CC2(C)C)C3)C1=O [I-258] | > 10 µM | > 20 µM |
| CC1(C)C[C@@H]1C(=O)N1CC2(CN(C(=O)c3cnn(Cc4ccccc4)c3)C[C@H]2C(=O)N[C@@H]2CCN(C3CC3)C2=O)C1 [I-259] | > 10 µM | > 20 µM |
| CNC(=O)[C@H](CO)NC(=O)C1CN(C(=O)c2cnn(Cc3ccccc3)c2)CC12CN(C(=O)[C@H]1CC1(C)C)C2 (stereo partly drawn) [I-260] | > 10 µM | > 20 µM |
| CNC(=O)[C@@H](CO)NC(=O)C1CN(C(=O)c2cnn(Cc3ccccc3)c2)CC12CN(C(=O)[C@H]1CC1(C)C)C2 (stereo partly drawn) [I-261] | > 10 µM | > 20 µM |
| CNC(=O)[C@@H](NC(=O)[C@@H]1CN(C(=O)c2cnn(Cc3ccccc3)c2)CC12CN(C(=O)[C@H]1CC1(C)C)C2)[C@@H](C)OCc1cccc(O)c1 [I-262] | > 10 µM | > 20 µM |
| CNC(=O)[C@@H](NC(=O)[C@@H]1CN(C(=O)c2cnn(Cc3ccccc3)c2)CC12CN(C(=O)[C@H]1CC1(C)C)C2)[C@@H](C)OCc1ccc(Br)cc1 [I-263] | 0.5 to 5 µM | 0.5 to 5 µM |
| Cc1cc(C(=O)N2CC(C(=O)N[C@H](C(=O)N3CCCCC3)[C@@H](C)OCC3CCCCC3)C3(C2)CN(C(=O)[C@H]2CC2(C)C)C3)[nH]n1 (stereo partly drawn) [I-264] | > 10 µM | > 20 µM |
| C[C@@H](OCC1CCCCC1)[C@H](NC(=O)C1CN(C(=O)C2CCC(=O)NC2)CC12CN(C(=O)[C@H]1CC1(C)C)C2)C(=O)N1CCCCC1 (stereo partly drawn) [I-265] | > 10 µM | > 20 µM |
| CNC(=O)[C@@H](NC(=O)[C@@H]1CN(C(=O)c2cnn(Cc3ccccc3)c2)CC12CN(C(=O)[C@H]1CC1(C)C)C2)[C@@H](C)N(C)CC1CCCCC1 [I-266] | > 10 µM | > 20 µM |
| CNC(=O)[C@@H](NC(=O)[C@@H]1CN(C(=O)c2cnn(Cc3ccccc3)c2)CC12CN(C(=O)NC(C)C)C2)[C@@H](C)OCC1CCCCC1 [I-267] | > 10 µM | > 20 µM |
| CNC(=O)[C@@H](NC(=O)[C@@H]1CN(C(=O)c2cnn(Cc3ccccc3)c2)CC12CN(C(=O)NC1CC1)C2)[C@@H](C)OCC1CCCCC1 [I-268, (S)-6-(1-benzyl-1H-pyrazole-4-carbonyl)-N8-((2S,3R)-3-(cyclohexylmethoxy)-1-(methylamino)-1-oxobutan-2-yl)-N2-cyclopropyl-2,6-diazaspiro[3.4]octane-2,8-dicarboxamide] | > 10 µM | > 20 µM |
| CNC(=O)[C@@H](NC(=O)[C@@H]1CN(C(=O)c2cnn(Cc3ccccc3)c2)CC12CN(C(=O)[C@H]1CC1(C)C)C2)[C@@H](C)NCC1CCCCC1 [I-269, (S)-6-(1-benzyl-1H-pyrazole-4-carbonyl)-N-((2S,3R)-3-((cyclohexylmethyl)amino)-1-(methylamino)-1-oxobutan-2-yl)-2-((S)-2,2-dimethylcyclopropane-1-carbonyl)-2,6-diazaspiro[3.4]octane-8-carboxamide] | > 10 µM | 5 to 20 µM |
| C[C@@H](OCC1CCCCC1)[C@H](NC(=O)[C@@H]1CN(C(=O)c2cnn(Cc3ccccc3)c2)CC12CN(C(=O)[C@H]1CC1(C)C)C2)C(=O)N1CC[C@@H]1CN [I-270] | > 10 µM | 5 to 20 µM |
| C[C@@H](OCC1CCCCC1)[C@@H](COC1CCC(F)(F)CC1)NC(=O)[C@@H]1CN(C(=O)c2cnn(Cc3ccccc3)c2)CC12CN(C(=O)[C@H]1CC1(C)C)C2 [I-271] | ≤ 0.5 µM | ≤ 0.5 µM |
| CNC(=O)[C@@H](NC(=O)[C@@H]1CN(C(=O)c2cnn(Cc3ccccc3)c2)CC12CN(C(=O)[C@H]1CC1(C)C)C2)[C@@H](C)N(CC1CCCCC1)C(C)=O [I-273, (S)-6-(1-benzyl-1H-pyrazole-4-carbonyl)-N-((2S,3R)-3-(N-(cyclohexylmethyl)acetamido)-1-(methylamino)-1-oxobutan-2-yl)-2-((S)-2,2-dimethylcyclopropane-1-carbonyl)-2,6-diazaspiro[3.4]octane-8-carboxamide] | > 10 µM | > 20 µM |
| CNC(=O)[C@@H](NC(=O)[C@@H]1CN(C(=O)c2cnn(Cc3ccccc3)c2)CC12CN(C(=O)N(C)C(C)C)C2)[C@@H](C)OCC1CCCCC1 [I-274, (S)-6-(1-benzyl-1H-pyrazole-4-carbonyl)-N8-((2S,3R)-3-(cyclohexylmethoxy)-1-(methylamino)-1-oxobutan-2-yl)-N2-isopropyl-N2-methyl-2,6-diazaspiro[3.4]octane-2,8-dicarboxamide] | 5 to 10 µM | 5 to 20 µM |
| C[C@H](OC1CCN(C(=O)[C@@H]2CN(C(=O)c3cnn(Cc4ccccc4)c3)CC23CN(C(=O)[C@H]2CC2(C)C)C3)CC1)c1ccccc1 [I-275] | > 10 µM | > 20 µM |
| CNC(=O)[C@@H](NC(=O)[C@@H]1CN(C(=O)c2cnn(Cc3ccccc3)c2)CC12CN(C(=O)C(C)(C)C1CC1)C2)[C@@H](C)OCc1ccccc1 [I-276] | > 10 µM | > 20 µM |
| CNC(=O)[C@@H](NC(=O)[C@@H]1CN(C(=O)c2cnn(Cc3ccccc3)c2)CC12CN(C(=O)C(C)C1CC1)C2)[C@@H](C)OCc1ccccc1 (stereo partly drawn) [I-277] | > 10 µM | > 20 µM |

| SMILES | IC50 (Kuramochi cells) | IC50 [1] |
| --- | --- | --- |
| Cc1ccc2[nH]c(CNC(=O)C3CN(C(=O)c4cnn(Cc5ccccc5)c4)CC34CN(C(=O)[C@H]3CC3(C)C)C4)nc2c1 (stereo partly drawn) [I-278] | > 10 µM | > 20 µM |
| CNC(=O)[C@@H](NC(=O)[C@@H]1CN(C(=O)c2cncs2)CC12CN(C(=O)[C@H]1CC1(C)C)C2)[C@@H](C)OC(C)C1CCCCC1 (stereo partly drawn) [I-279] | 0.5 to 5 µM | 0.5 to 5 µM |
| C[C@@H](OCc1ccccc1)[C@H](NC(=O)[C@@H]1CN(C(=O)c2cnn(Cc3ccccc3)c2)CC12CN(C(=O)[C@H]1CC1(C)C)C2)C(=O)N1CCC(F)(F)CC1 [I-280] | 0.5 to 5 µM | 0.5 to 5 µM |
| C[C@@H](OCC1CCCCC1)[C@H](NC(=O)[C@@H]1CN(C(=O)c2cnn(Cc3ccccc3)c2)CC12CN(C(=O)[C@H]1CC1(C)C)C2)C(C)(C)O [I-281] | 0.5 to 5 µM | ≤ 0.5 µM |
| C[C@@H](OCC1CCCCC1)[C@@H](COCC1CCCCC1)NC(=O)[C@@H]1CN(C(=O)c2cncs2)CC12CN(C(=O)[C@H]1CC1(C)C)C2 [I-282] | ≤ 0.5 µM | ≤ 0.5 µM |
| COC[C@H]1CCCN(C(=O)[C@@H](NC(=O)[C@@H]2CN(C(=O)c3cnn(Cc4ccccc4)c3)CC23CN(C(=O)[C@H]2CC2(C)C)C3)[C@@H](C)OC)C1 [I-283] | > 10 µM | > 20 µM |
| CC(O[C@H](C)[C@H](NC(=O)[C@@H]1CN(C(=O)c2cncs2)CC12CN(C(=O)[C@H]1CC1(C)C)C2)C(=O)N1CCCCC1)C1CCCCC1 (stereo partly drawn) [I-284, (8S)—N-((2S,3R)-3-(1-cyclohexylethoxy)-1-oxo-1-(piperidin-1-yl)butan-2-yl)-2-((S)-2,2-dimethylcyclopropane-1-carbonyl)-6-(thiazole-5-carbonyl)-2,6-diazaspiro[3.4]octane-8-carboxamide] | 0.5 to 5 µM | 0.5 to 5 µM |
| CC1(C)C[C@@H]1C(=O)N1CC2(CN(C(=O)c3cncs3)C[C@H]2C(=O)N[C@@H](COCC2CCCCC2)C(=O)N2CCCCC2)C1 [I-286] | 0.5 to 5 µM | 0.5 to 5 µM |
| C[C@@H](OCC1(C(F)(F)F)CC1)[C@H](NC(=O)[C@@H]1CN(C(=O)c2cncs2)CC12CN(C(=O)[C@H]1CC1(C)C)C2)C(=O)N1CCC(F)(F)CC1 [I-287] | > 10 µM | 5 to 20 µM |
| C[C@@H](OCC1CCOCC1)[C@H](NC(=O)[C@@H]1CN(C(=O)c2cncs2)CC12CN(C(=O)[C@H]1CC1(C)C)C2)C(=O)N1CCC(F)(F)CC1 [I-288] | > 10 µM | 5 to 20 µM |
| CNC(=O)[C@@H](NC(=O)[C@@H]1CN(C(=O)c2cncs2)CC12CN(C(=O)[C@H]1CC1(C)C)C2)[C@@H](C)OCC12CCC(CC1)CC2 [I-289] | ≤ 0.5 µM | ≤ 0.5 µM |
| CNC(=O)[C@@H](NC(=O)[C@@H]1CN(C(=O)c2cncs2)CC12CN(C(=O)[C@H]1CC1(C)C)C2)[C@@H](C)OC1CCCCC1 [I-290] | > 10 µM | 5 to 20 µM |
| CC1(C)C[C@@H]1C(=O)N1CC2(CN(C(=O)c3cncs3)C[C@@H]2C(=O)N[C@@H](COCC2CCCCC2)C(=O)N2CCCCC2)C1 [I-293] | > 10 µM | > 20 µM |
| CNC(=O)[C@@H](NC(=O)[C@@H]1CN(C(=O)c2cnn(Cc3ccccc3)c2)CC12CN(CC(=O)O)C2)[C@@H](C)OCC1CCCCC1 [I-294, 2-((S)-6-(1-benzyl-1H-pyrazole-4-carbonyl)-8-(((2S,3R)-3-(cyclohexylmethoxy)-1-(methylamino)-1-oxobutan-2-yl)carbamoyl)-2,6-diazaspiro[3.4]octan-2-yl)acetic acid] | > 10 µM | > 20 µM |
| CNC(=O)[C@@H](NC(=O)[C@@H]1CN(C(=O)c2cnn(Cc3ccccc3)c2)CC12CN(C(=O)N(C)C1CC1)C2)[C@@H](C)OCC1CCCCC1 [I-295] | 5 to 10 µM | 5 to 20 µM |
| C[C@@H](OCC1CCCCC1)[C@H](NC(=O)[C@@H]1CN(C(=O)c2cncs2)CC12CN(C(=O)[C@H]1CC1(F)F)C2)C(=O)N1CCCCC1 [I-296] | 0.5 to 5 µM | 0.5 to 5 µM |
| CNC(=O)C(NC(=O)[C@@H]1CN(C(=O)c2cn[nH]c2)CC12CN(C(=O)[C@H]1CC1(C)C)C2)C(O)Cc1ccccc1 (stereo partly drawn) [I-298] | > 10 µM | > 20 µM |
| CNC(=O)[C@@H](NC(=O)[C@@H]1CN(C(=O)c2cnn(Cc3ccccc3)c2)CC12CN(C(=O)[C@H]1CC1(C)C)C2)[C@@H](C)OCC12CC(C(=O)OC)(C1)C2 [I-299] | > 10 µM | > 20 µM |
| C[C@@H](OCC1CCC(F)(F)CC1)[C@H](NC(=O)[C@@H]1CN(C(=O)c2cn[nH]c2)CC12CN(C(=O)C1(C(F)(F)F)CC1)C2)C(=O)N1CCOCC1 [I-302] | > 10 µM | > 20 µM |
